Columns and labels:
CT26 tumors = assay: CT26 tumor model with ex vivo T cell analysis; type: in vivo, BALB/c mice; conditions: for Spleen CD8+IFN-γ (%): splenocytes
Method: BABL/c mice were subcutaneously (s.c.) injected with 2 × 10^5 CT26 cells on the right back, and C57BL/6 mice were injected with 1 × 10^6 MC38 cells. One week later, tumor-bearing mice were randomized into indicated groups, and intraperitoneal (i.p.) injected with azelnidipine or normal saline every day for two weeks. Tumor volumes were measured every other day by the (a) length, (b) width, and (c) height and calculated as volume (V) = a × b × c/2. For the combinational model of azelnidipine and radiotherapy (RT), MC38 tumor-bearing mice received irradiation (IR) when the tumors reached 80–100 mm^3. The mice received one dose of 20 Gy irradiation at the tumor local site, and followed by the treatment of azelnidipine.
Tumor-bearing mice were sacrificed at the end of the treatment. The tumors were dissected and digested into single cell with an enzyme cocktail of 100 U/mL collagenase IV; and Dnase I. The infiltration of CD8^+ T cells at the tumor site was detected by flow cytometry by staining of anti-mouse CD45, anti-mouse CD3, anti-mouse CD8α or isotype control. The MDSCs at the tumor site were analyzed by staining of anti-mouse CD45, anti-mouse CD11b, anti-mouse Ly6C, and anti-mouse Ly6G. Spleens and draining lymph nodes were grinded and filtered into a single cell suspension. The tumor-infiltrating lymphocytes (TILs) isolated by Percoll-gradient centrifugation, splenocytes, and cells from draining lymph nodes were also performed the intracellular cytokine staining assays. The cells were stimulated with or without 20 ng/mL of phorbol 12-myristate 13-acetate (PMA, Sigma-Aldrich, St. Louis, MO, USA) and 1 µM ionomycin (Sigma-Aldrich) with the presence of protein transport inhibitor cocktail (eBioscience) for 4 h. The surface marker CD3, CD8, and the intracellular cytokine marker IFN-γ were sequentially stained according to the Foxp3/Transcription Factor Staining Buffer Set (00-5523, eBioscience). The frequency of IFN-γ secreting CD8^+ T cells were counted according to the fluorescence minus one (FMO) control with the isotype control of IFN-γ antibody.
Figure 6 The antitumor effects of azelnidipine in CT26 tumor model. (A) CT26 tumor-bearing mice were i.p. administrated with 2 or 5 mg/kg of azelnidipine each day for 2 weeks as in the schematic diagram. (B) Tumor growth curve of CT26 tumor-bearing mice treated with normal saline or azelnidipine (n = 7). *, p < 0.05, ***, p < 0.001.Two-way ANOVA with Tukey’s multiple-comparisons test were conducted. (C) Representative flow cytometry plots and summary data of the frequency of CD8^+ T cells in the tumor tissues. Representative intracellular IFN-γ staining plots and summary data of the tumor infiltrating CD8^+ T cells (D), tumor-draining lymph node cells (E) and splenocytes (F). The frequency of IFN-γ secreting CD8^+ T cells were counted according to the fluorescence minus one (FMO) control with the isotype control of IFN-γ antibody. *, p < 0.05, **, p < 0.01, Student’s t-test were conducted. TEXT PRINTED IN THE PICTURE: (C) NS: Tumor CD3^+CD8^+ (%): 6.27 | (C) Azelnidipine: Tumor CD3^+CD8^+ (%): 7.46 (2 mg/kg); Tumor CD3^+CD8^+ (%): 9.35 (5 mg/kg) | (D) NS: Tumor CD8^+IFN-γ (%): 14.8 | (D) Azelnidipine: Tumor CD8^+IFN-γ (%): 12.4 (2 mg/kg); Tumor CD8^+IFN-γ (%): 20.0 (5 mg/kg) | (E) NS: dLN CD8^+IFN-γ (%): 0.45 | (E) Azelnidipine: dLN CD8^+IFN-γ (%): 0.53 (2 mg/kg); dLN CD8^+IFN-γ (%): 1.10 (5 mg/kg) | (F) NS: Spleen CD8^+IFN-γ (%): 5.32 | (F) Azelnidipine: Spleen CD8^+IFN-γ (%): 7.71 (2 mg/kg); Spleen CD8^+IFN-γ (%): 7.91 (5 mg/kg) DOUBTS OF THE COPYIST ABOUT THIS PICTURE: Panels C-F: the flow plots are headed only 'NS', '2 mg/kg' and '5 mg/kg'. The name 'Azelnidipine' is taken from panels A and B of the same picture. / Panels C-F: the numbers in the flow plots have no measure or unit beside them. The measure (e.g. 'CD3^+CD8^+ (%)') and the tissue ('Tumor', 'dLN', 'Spleen') are taken from the bar chart in the same panel. / NS is the control group. […]

tumor = tested on: tumor; parameters: method as in earlier work; conditions: cited from earlier work
mouse TIGIT/PVR = target: T1, mouse TIGIT/PVR (Mus musculus, UniProt F6V4I7); assay: Blocking assay, mouse PVR protein binding to CHOK1-mTIGIT cells; conditions: concentration gradient; read-out: IC50, blocking mouse TIGIT/PVR (mPVR binding)
T1 construct: purchased Sino Biological 50259-M03H; host or cells: soluble protein purchased; TIGIT on CHOK1-mTIGIT cells (lenti-viral transfection)
T1 sequence (F6V4I7 29-408): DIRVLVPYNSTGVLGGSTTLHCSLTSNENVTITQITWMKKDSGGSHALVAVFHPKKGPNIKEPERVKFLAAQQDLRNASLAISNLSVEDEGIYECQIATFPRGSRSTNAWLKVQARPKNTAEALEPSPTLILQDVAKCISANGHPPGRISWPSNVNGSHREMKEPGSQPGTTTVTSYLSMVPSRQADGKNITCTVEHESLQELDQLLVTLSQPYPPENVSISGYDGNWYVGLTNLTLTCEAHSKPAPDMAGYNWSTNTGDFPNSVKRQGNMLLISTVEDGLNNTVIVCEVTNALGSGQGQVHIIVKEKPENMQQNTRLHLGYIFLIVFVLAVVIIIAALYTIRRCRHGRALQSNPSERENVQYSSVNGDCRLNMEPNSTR
Method: (§1) The abilities of small molecule inhibitors (SMIs) (purchased from TargetMol, Shanghai, China) to block the binding of SIRPα protein to CHOK1-CD47 cells or PVR protein to CHOK1-TIGIT cells were determined by flow cytometry, as previously reported. The SMIs at indicated concentrations were incubated with Fc-tagged SIRPα or PVR protein for 30 min at 4°C, followed by incubating with the indicated cells for another 30 min. Human SIRPα protein (SIA-[…], ACRO Biosystem, Beijing, China), mouse SIRPα protein (SIA-[…], ACRO Biosystem, Beijing, China), human PVR protein (CD5-[…], ACRO Biosystem, Beijing, China), and mouse PVR protein (50259-[…], Sino Biological, Beijing, China) were used. PE-conjugated anti-human IgG antibody was used to detect the Fc protein bind to cells. Cells incubated with the Fc proteins and anti-human IgG antibody without the SMIs serve as the positive control. The mean fluorescent intensity (MFI) of each sample was detected and recorded by a flow cytometry. The blocking efficacy of the SMIs was calculated as the equation: (MFI of the positive control-MFI of the SMI)/MFI of the positive control × 100%.

mouse CD47/SIRPα = target: T2, mouse CD47/SIRPα (Mus musculus, UniProt P97797); assay: Blocking assay, mouse SIRPα protein binding to CHOK1-mCD47 cells; conditions: concentration gradient; read-out: IC50, blocking mouse CD47/SIRPα (mSirpα binding)
T2 construct: purchased ACRO Biosystem SIA-M5258; host or cells: soluble protein purchased; CD47 on CHOK1-mCD47 cells (lenti-viral transfection)
T2 sequence (P97797 32-373 limits assumed): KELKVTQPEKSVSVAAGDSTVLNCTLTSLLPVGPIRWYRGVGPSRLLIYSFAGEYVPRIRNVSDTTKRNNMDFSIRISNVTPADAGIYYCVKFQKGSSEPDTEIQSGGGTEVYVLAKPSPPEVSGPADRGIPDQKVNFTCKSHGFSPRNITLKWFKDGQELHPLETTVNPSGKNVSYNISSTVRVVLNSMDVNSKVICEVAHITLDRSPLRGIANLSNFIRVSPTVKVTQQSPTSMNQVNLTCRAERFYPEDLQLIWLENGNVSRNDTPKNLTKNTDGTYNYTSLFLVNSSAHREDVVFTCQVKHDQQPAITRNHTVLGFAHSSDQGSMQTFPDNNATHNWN
Method: as §1

IL-12 p40 = tested on: IL-12 p40; parameters: method as in PMID 19438591; conditions: cited from earlier work

- IC50 (mouse TIGIT/PVR): ~82 µM
- IC50 (mouse CD47/SIRPα): ~37 µM
Structure (SMILES): CC1=C(C(=O)OC(C)C)C(c2cccc([N+](=O)[O-])c2)C(C(=O)OC2CN(C(c3ccccc3)c3ccccc3)C2)=C(N)N1 (stereo not shown) [Azelnidipine]
- Spleen CD8+IFN-γ (%) (CT26 tumors; 2 mg/kg i.p. (low dosage)): enhance
- Spleen CD8+IFN-γ (%) (CT26 tumors; 5 mg/kg i.p. (high dosage)): significantly boost
- dLN CD8+IFN-γ (%) (CT26 tumors; 5 mg/kg i.p. (high dosage), tumor-draining lymph node): significantly boost
- CT26 tumor growth (CT26 tumors; 2 and 5 mg/kg i.p. each day for 2 weeks): significantly restrict
- IFN-γ secretion function of the tumor infiltrating CD8+ T cells (CT26 tumors; dose not given): enhanced
- frequency of CD8+ T cells in the tumor tissues (CT26 tumors; dose not given): remarkably increase
- tumor growth in vivo (tumor): significantly inhibit the tumor growth in vivo
- secretion of IL-12 p40 mediated by immune complex (IL-12 p40): enhance the secretion of IL-12 p40
